Experimental data: patent publication US12172983B2, “EGFR inhibitors” (Blueprint Medicines Corporation, priority 2019, dated 2024)
Like-named read-outs stand apart in the source and are kept apart here.

How the values were obtained:
[1] = system: phosphorylation of EGFR (Tyr1068) in NCI-H1975 cell line that harbors the EGFR L858R T790M mutations; test: NCI-H1975 pEGFR AlphaLISA assay; type: cell-based; settings: 4-5 hours incubation, read-out: Ext pEGFR H1975
Description: Inhibitory effects of the compounds of the disclosure were evaluated in cellular assays that measure level of intracellular phosphorylation of EGFR in NCI-H1975 cell line that harbors the EGFR L858R T790M mutations (ATCC, CRL-5908) using AlphaLISA sureFire ultra p-EGFR (Tyr1068) assay kit (PerkinElmer, ALSU-PEGFR-A50K). The NCI-H1975 cells were seeded at 12.5K/well in 22 μL into 384 well opti plate (PerkinElmer, 6007299) and adhering overnight at 37 C/5% CO2. On the next day, the test compounds and DMSO control were added into H1975 cell plate followed by incubation at 37 C/5% CO2 for 4-5 hours. The cells were then spin down in the 384-well plate and lysed with 10 μL of 1×AlphaLISA lysis buffer followed by shaking at 600 rpm for 10 minutes at room temperature. After that, 5 μL of an acceptor bead mix was added to each well followed by incubation at room temperature for 1.5-2 h in dark. Then 5 μL of a donor bead mix was added to each well followed by overnight incubation at room temperature in dark. On the next day, the plate was read at a compatible plate reader to obtain pEGFR signal. Percent of pEGFR inhibition was plotted against log concentration of compounds to generate IC50 values.

EGFR (L858R T790M C797S) = target: T1, EGFR (L858R T790M C797S) (Homo sapiens, UniProt P00533, C797S/L858R/T790M); test: Biochemical EGFR inhibition assay (Caliper mobility shift), EGFR LRTMCS mutant; settings: inhibitory activity against EGFR LRTMCS mutant; apparent IC50; read-out: Ext Enz LRTMCS
T1 construct: purchased SignalChem E10-122VG
T1 sequence (P00533 25-1210 T790M/C797S/L858R): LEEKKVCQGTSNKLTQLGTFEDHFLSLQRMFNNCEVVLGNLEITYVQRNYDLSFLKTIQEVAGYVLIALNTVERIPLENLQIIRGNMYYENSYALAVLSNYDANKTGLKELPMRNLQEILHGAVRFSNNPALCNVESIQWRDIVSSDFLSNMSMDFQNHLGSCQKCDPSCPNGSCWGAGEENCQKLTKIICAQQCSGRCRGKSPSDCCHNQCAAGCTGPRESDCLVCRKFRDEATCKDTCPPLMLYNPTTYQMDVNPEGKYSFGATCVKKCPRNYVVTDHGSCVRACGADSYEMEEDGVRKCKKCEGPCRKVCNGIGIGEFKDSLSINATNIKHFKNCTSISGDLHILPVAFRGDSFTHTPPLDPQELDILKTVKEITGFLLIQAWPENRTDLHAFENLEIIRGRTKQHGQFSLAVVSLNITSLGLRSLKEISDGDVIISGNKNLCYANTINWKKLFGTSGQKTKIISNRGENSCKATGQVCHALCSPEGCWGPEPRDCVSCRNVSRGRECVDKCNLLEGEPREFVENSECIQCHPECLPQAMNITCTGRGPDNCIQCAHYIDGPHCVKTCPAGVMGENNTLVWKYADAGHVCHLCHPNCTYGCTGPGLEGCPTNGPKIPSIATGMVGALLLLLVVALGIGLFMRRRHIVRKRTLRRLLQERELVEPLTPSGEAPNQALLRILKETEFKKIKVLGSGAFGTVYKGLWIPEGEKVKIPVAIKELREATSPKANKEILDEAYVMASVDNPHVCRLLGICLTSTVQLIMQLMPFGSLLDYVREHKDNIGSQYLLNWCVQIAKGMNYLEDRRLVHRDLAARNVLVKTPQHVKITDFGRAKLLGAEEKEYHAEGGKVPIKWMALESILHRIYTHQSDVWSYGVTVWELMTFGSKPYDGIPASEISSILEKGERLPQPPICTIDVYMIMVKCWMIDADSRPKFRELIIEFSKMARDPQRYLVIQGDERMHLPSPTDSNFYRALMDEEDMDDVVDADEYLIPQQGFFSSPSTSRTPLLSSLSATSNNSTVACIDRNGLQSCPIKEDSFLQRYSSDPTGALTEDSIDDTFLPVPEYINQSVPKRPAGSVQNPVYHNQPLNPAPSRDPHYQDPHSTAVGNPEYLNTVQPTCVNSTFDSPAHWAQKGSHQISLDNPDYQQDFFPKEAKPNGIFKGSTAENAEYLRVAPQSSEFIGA
Description: Reactions proceeded until between 10% to 20% total peptides were phosphorylated at room temperature (25° C.) and were terminated with 35 mM 2,2′,2″,2′″-(ethane-1,2-diyldinitrilo)tetraacetic acid (EDTA). Product was detected using the Caliper mobility shift detection method where the phosphorylated peptide (product) and substrate were electrophoretically separated and measured. Percent activity was plotted against log concentration of compound and points to generate an apparent IC50.

[2] = Homo sapiens, NCI-H1975, inhibition of phosphorylation of mutant EGFR in NCI-H1975 cells
[3] = inhibition of phosphorylation of mutant EGFR in NCI-H1975 cells

IC50 [1, 2] | IC50 (EGFR (L858R T790M C797S)) | IC50 [1, 3] | SMILES
≤ 10 nM | ≤ 15 nM | – | CC(C)c1ccc(N2C[C@H](CS(C)(=O)=O)[C@H]2C)c2cnc(Nc3ccnc(N4CC[C@@H](F)[C@@H](O)C4)n3)cc12 (single isomer, unassigned) [Compound 269, (3S,4R)-4-fluoro-1-[4-({8-[(2R,3S)-3-(methanesulfonylmethyl)-2-methylazetidin-1-yl]-5-(propan-2-yl)isoquinolin-3-yl}amino)pyrimidin-2-yl]piperidin-3-ol or (3R,4S)-4-fluoro-1-[4-({8-[(2R,3S)-3-(methanesulfonylmethyl)-2-methylazetidin-1-yl]-5-(propan-2-yl)isoquinolin-3-yl}amino)pyrimidin-2-yl]piperidin-3-ol]
30.1 to 50 nM | ≤ 15 nM | – | CC(C)c1ccc(N2CC(CS(C)(=O)=O)C2)c2cnc(Nc3ccnc(N4C[C@H]5CC[C@@H](C4)[C@@H]5O)n3)cc12 [Compound 39, Rac (1R,5S,8S)-3-[4-({8-[3-(methanesulfonylmethyl)azetidin-1-yl]-5-(propan-2-yl)isoquinolin-3-yl}amino)pyrimidin-2-yl]-3-azabicyclo[3.2.1]octan-8-ol]
≤ 10 nM | 20.1 to 30 nM | – | CC(C)c1ccc(N2C[C@H](CS(C)(=O)=O)[C@H]2C)c2cnc(Nc3ccnc(N4CC[C@@H](OCC(C)(C)O)[C@@H](F)C4)n3)cc12 [Compound 256, 1-{[(3S,4R)-3-fluoro-1-[4-({8-[(2R,3S)-3-(methanesulfonylmethyl)-2-methylazetidin-1-yl]-5-(propan-2-yl)isoquinolin-3-yl}amino)pyrimidin-2-yl]piperidin-4-yl]oxy}-2-methylpropan-2-ol]
– | 15.1 to 20 nM | 30.1 to 50 nM | CC(C)c1cnc(N2CC(CS(C)(=O)=O)C2)c2cnc(Nc3ccnc(N4C[C@H]5COC[C@H]5C4)n3)cc12 [Compound 14, N-{2-[(3aR,6aS)-hexahydro-1H-furo[3,4-c]pyrrol-5-yl]pyrimidin-4-yl}-8-[3-(methanesulfonylmethyl)azetidin-1-yl]-5-(propan-2-yl)-2,7-naphthyridin-3-amine or N-{2-[(3aS,6aR)-hexahydro-1H-furo[3,4-c]pyrrol-5-yl]pyrimidin-4-yl}-8-[3-(methanesulfonylmethyl)azetidin-1-yl]-5-(propan-2-yl)-2,7-naphthyridin-3-amine]
30.1 to 50 nM | 30.1 to 100 nM | – | CC(C)c1ccc(N2CC(CS(C)(=O)=O)C2)c2cnc(Nc3ccnc(N4CC[C@](C)(O)[C@@](C)(F)C4)n3)cc12 (single isomer, unassigned) [Compound 114, (3S,4S)-3-fluoro-1-[4-({8-[3-(methanesulfonylmethyl)azetidin-1-yl]-5-(propan-2-yl)isoquinolin-3-yl}amino)pyrimidin-2-yl]-3,4-dimethylpiperidin-4-ol or (3R,4R)-3-fluoro-1-[4-({8-[3-(methanesulfonylmethyl)azetidin-1-yl]-5-(propan-2-yl)isoquinolin-3-yl}amino)pyrimidin-2-yl]-3,4-dimethylpiperidin-4-ol]
≤ 10 nM | ≤ 15 nM | – | CC[C@]1(F)CN(c2nccc(Nc3cc4c(C(C)C)ccc(N5CC(CS(C)(=O)=O)C5)c4cn3)n2)CC[C@H]1O (single isomer, unassigned) [Compound 115, (3S,4R)-3-ethyl-3-fluoro-1-[4-({8-[3-(methanesulfonylmethyl)azetidin-1-yl]-5-(propan-2-yl)isoquinolin-3-yl}amino)pyrimidin-2-yl]piperidin-4-ol or (3R,4S)-3-ethyl-3-fluoro-1-[4-({8-[3-(methanesulfonylmethyl)azetidin-1-yl]-5-(propan-2-yl)isoquinolin-3-yl}amino)pyrimidin-2-yl]piperidin-4-ol]
10.1 to 20 nM | ≤ 15 nM | – | C[C@H](CO)c1ccc(N2C[C@H](CS(C)(=O)=O)[C@H]2C)c2cnc(Nc3ccnc(N4CC[C@@](C)(O)[C@@H](F)C4)n3)cc12 (single isomer, unassigned) [Compound 199, (3S,4R)-3-fluoro-1-(4-(5-((S)-1-hydroxypropan-2-yl)-8-((2R,3S)-2-methyl-3-(methylsulfonylmethyl)azetidin-1-yl)isoquinolin-3-ylamino)pyrimidin-2-yl)-4-methylpiperidin-4-ol or (3S,4R)-3-fluoro-1-(4-((5-((R)-1-hydroxypropan-2-yl)-8-((2R,3S)-2-methyl-3-((methylsulfonyl)methyl)azetidin-1-yl)isoquinolin-3-yl)amino)pyrimidin-2-yl)-4-methylpiperidin-4-ol]
10.1 to 20 nM | ≤ 15 nM | – | CO[C@H]1CN(c2nccc(Nc3cc4c(C(C)C)ccc(N5C[C@H](CS(C)(=O)=O)[C@H]5C)c4cn3)n2)CC[C@@H]1O (single isomer, unassigned) [Compound 98, (3R,4R)-1-[4-({8-[(2R,3S)-3-(methanesulfonylmethyl)-2-methylazetidin-1-yl]-5-(propan-2-yl)isoquinolin-3-yl}amino)pyrimidin-2-yl]-3-methoxypiperidin-4-ol or (3S,4S)-1-[4-({8-[(2R,3S)-3-(methanesulfonylmethyl)-2-methylazetidin-1-yl]-5-(propan-2-yl)isoquinolin-3-yl}amino)pyrimidin-2-yl]-3-methoxypiperidin-4-ol]
≤ 10 nM | 15.1 to 20 nM | – | CCS(=O)(=O)C[C@H]1CN(c2ncc(C(C)C)c3cc(Nc4ccnc(N5CC[C@@](C)(O)C(F)(F)C5)n4)ncc23)[C@@H]1C (single isomer, unassigned) [Compound 230, (4R)-1-[4-({8-[(2R,3S)-3-[(ethanesulfonyl)methyl]-2-methylazetidin-1-yl]-5-(propan-2-yl)-2,7-naphthyridin-3-yl}amino)pyrimidin-2-yl]-3,3-difluoro-4-methylpiperidin-4-ol or (4S)-1-[4-({8-[(2R,3S)-3-[(ethanesulfonyl)methyl]-2-methylazetidin-1-yl]-5-(propan-2-yl)-2,7-naphthyridin-3-yl}amino)pyrimidin-2-yl]-3,3-difluoro-4-methylpiperidin-4-ol]
10.1 to 20 nM | 15.1 to 20 nM | – | [2H]C([2H])([2H])O[C@H]1CCN(c2nccc(Nc3cc4c(C(C)C)ccc(N5CC(CS(C)(=O)=O)C5)c4cn3)n2)CC1(F)F (single isomer, unassigned) [Compound 286, N-{2-[(4S)-3,3-difluoro-4-(^2H3)methoxypiperidin-1-yl]pyrimidin-4-yl}-8-[3-(methanesulfonylmethyl)azetidin-1-yl]-5-(propan-2-yl)isoquinolin-3-amine or N-{2-[(4R)-3,3-difluoro-4-(^2H3)methoxypiperidin-1-yl]pyrimidin-4-yl}-8-[3-(methanesulfonylmethyl)azetidin-1-yl]-5-(propan-2-yl)isoquinolin-3-amine]
≤ 10 nM | ≤ 15 nM | – | CCS(=O)(=O)C[C@H]1CN(c2ncc(C(C)C)c3cc(Nc4ccnc(N5CC[C@@H](OC)[C@@H](O)C5)n4)ncc23)[C@@H]1C (single isomer, unassigned) [Compound 178]
10.1 to 20 nM | 15.1 to 20 nM | – | CO[C@@H]1[C@H](F)CN(c2nccc(Nc3cc4c(C(C)C)ccc(N5CC(CS(C)(=O)=O)C5)c4cn3)n2)C[C@@H]1O (racemic) [Compound 146, (3S,4S,5R)-5-fluoro-1-(4-((5-isopropyl-8-(3-((methylsulfonyl)methyl)azetidin-1-yl)isoquinolin-3-yl)amino)pyrimidin-2-yl)-4-methoxypiperidin-3-ol and (3R,4R,5S)-5-fluoro-1-(4-((5-isopropyl-8-(3-((methylsulfonyl)methyl)azetidin-1-yl)isoquinolin-3-yl)amino)pyrimidin-2-yl)-4-methoxypiperidin-3-ol]
≤ 10 nM | ≤ 15 nM | – | CC(C)c1ncc(N2CC(CS(C)(=O)=O)C2)c2cnc(Nc3ccnc(N4CC[C@@H](O)[C@@](C)(F)C4)n3)cc12 (single isomer, unassigned) [Compound 70]
– | ≤ 15 nM | ≤ 10 nM | CO[C@@H]1[C@H](O)CN(c2nccc(Nc3cc4c(C(C)C)ccc(N5CC(CS(C)(=O)=O)C5)c4cn3)n2)CC1(F)F (single isomer, unassigned) [Compound 291, (3R,4R)-5,5-difluoro-1-[4-({8-[3-(methanesulfonylmethyl)azetidin-1-yl]-5-(propan-2-yl)isoquinolin-3-yl}amino)pyrimidin-2-yl]-4-methoxypiperidin-3-ol or (3S,4S)-5,5-difluoro-1-[4-({8-[3-(methanesulfonylmethyl)azetidin-1-yl]-5-(propan-2-yl)isoquinolin-3-yl}amino)pyrimidin-2-yl]-4-methoxypiperidin-3-ol]
30.1 to 50 nM | ≤ 15 nM | – | CCOc1cnc(N2CC(CS(C)(=O)=O)C2)c2cnc(Nc3ccnc(N4CC[C@@H](O)[C@@](C)(F)C4)n3)cc12 (single isomer, unassigned) [Compound 80]
